The data set is described as follows: gradient 5% acetonitrile 3 min, to 50% in 2 min, to 85% in 15 min, held 3 min, 100 µL/min. Particulars: column: Zorbax Extend-C18 2.1 x 50 mm; eluents: water / acetonitrile, 0.1% formic acid. The method in brief: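 Retention times of pure standards were taken from adduct peaks that were selected by computer and manually inspected. Over 3 months, mixtures of ~100 molecules were run by HPLC–quadrupole time-of-flight mass spectrometry in positive and negative ionization mode. The Zorbax Extend-C18 column (2.1 × 50 mm, 1.8 μm) ran at 100 μL/min in water and acetonitrile, each containing 0.1% formic acid, with 40 μL dead volume and 900 μL dwell volume.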
`Cc1ccc(NC(=O)N2CCC3(CC2)N=C(c2ccccc2)C(=O)N3)cc1C` came in with an RP-LC retention time of 824 s. `CN(CC1CCOC1)C(=O)Nc1ccc(F)cc1` (stereo not given): the RP-LC retention time was determined as 671 s. The compound `CC(C)(c1ccccc1)c1cc(CN2CCOCC2)c(O)c(CN2CCOCC2)c1` registered an RP-LC retention time of 575 s. In the case of `CCNC(=O)c1cnn(-c2cc(-c3nc(C)no3)ccn2)c1C`, the RP-LC retention time was determined as 706 s.

Compound `O=C(C1CCN(S(=O)(=O)N2CCCC2)CC1)N1CCN(Cc2noc3ccccc23)CC1` had an RP-LC retention time of 671 s. Compound `Cc1ccn(-c2ccc(Nc3ccc(NC(=O)c4ccccc4C(F)(F)F)cc3)nn2)n1` returned an RP-LC retention time of 809 s. Compound `O=C(Nc1nnc(Cc2cccs2)o1)c1cc(Cl)sc1Cl` yielded an RP-LC retention time of 831 s. The same measure for `CCn1ncc(NC(=O)Cc2ccc(Cl)cc2)c(N2CCOCC2)c1=O`: 836 s. Compound `Cc1ccc(C(=O)NCc2noc(C3CCCC3)n2)cc1` returned an RP-LC retention time of 842 s.

`CCOc1ccc(-n2c(CN3CCN(C(=O)NCCCOC)CC3)nc3cccnc32)cc1` had an RP-LC retention time of 609 s. In turn, `Cc1ccc(C)c(N2CCN(C(=O)c3cn4ccc(C)cc4n3)CC2)c1` showed an RP-LC retention time of 759 s. As to `Cc1ccc(CS(=O)(=O)Nc2ccc3c(c2)nc(-c2ccc(C(=O)NC(C)C)cc2)n3C)cc1`, the RP-LC retention time is 702 s. In the case of `Fc1ccc(-c2noc(Cc3nc(-c4cccc(Cl)c4)cs3)n2)cc1` it was 1350 s; in that of `COC(=O)C1=C(CN2CCN(C)CC2)NC(=O)NC1c1ccccc1Cl` (stereo not given), 597 s; in that of `CN(C)C(=O)Oc1ccc2c(c1)O/C(=C\C=C\c1ccccc1)C2=O`, 1060 s.

`CN(CC1CCOC1)C(=O)NCc1cccc(F)c1` (stereo not given) came in with an RP-LC retention time of 675 s. The compound `Cc1noc(C)c1S(=O)(=O)N1CCC(c2nnc(-c3ccco3)o2)CC1` registered an RP-LC retention time of 756 s. The same measure for `O=C(NC1CCCCCCC1)C1CCN(S(=O)(=O)c2ccc(-c3noc(C4CC4)n3)cc2)CC1`: 1120 s. Regarding `Cc1c(Cl)cccc1N1CC(c2nc3ccccc3[nH]2)CC1=O` (stereo not given), the RP-LC retention time amounted to 577 s. In turn, `CCc1nnc(-c2cc(C)n(CC(=O)Nc3ccc(Cl)cc3C)c2C)o1` displayed an RP-LC retention time of 915 s. The same measure for `CCn1c(=O)c(N2CCC(NC(=O)NCc3ccccc3)CC2)nc2cccnc21`: 826 s.

In turn, `O=C(NCCc1n[nH]c(Cc2cccc(F)c2)n1)c1ccc2c(c1)OCO2` gave an RP-LC retention time of 673 s.

In the case of `CCOc1ccc(NC(=O)Cn2nc(N3CCOCC3)c3ccccc3c2=O)cc1`, the RP-LC retention time is 774 s. `O=C(NC1CCN(c2ccccc2)C1=O)c1cccc(Br)c1` (stereo not given) gave an RP-LC retention time of 855 s. In the case of `O=C(C(Cl)Cl)N1CC2CCC(CC2)C1`, the RP-LC retention time turned out to be 956 s. In the case of `COc1ccc(-c2nnc(CC(=O)NC3CC3)o2)cc1` it was 640 s; in that of `O=C(CCn1c(=O)sc2ccccc21)Nc1nc(-c2ccccc2)cs1`, 1010 s; in that of `COc1ccc(Oc2cc3c(cc2NC(=O)Nc2ccccc2)n(C)c(=O)n3C)cc1`, 893 s. In turn, `CCN1C(=O)c2cccnc2Sc2cc(NC(=O)c3ccc(C)c(F)c3)ccc21` yielded an RP-LC retention time of 896 s. `O=C(COc1ccc(Cl)cc1Cl)Nc1ccc2c(c1)N(C(=O)C1CC1)CC2` had an RP-LC retention time of 987 s.

As to `O=C(NC1CC(=O)N(C2CC2)C1)C1CC=CCC1` (stereo not given), the RP-LC retention time stood at 591 s. The same measure for `CCc1noc(NC(C)=O)c1-c1ccc(OC)c(S(=O)(=O)Nc2ccc(C#N)cc2)c1`: 735 s; for `Cc1ccc(CNC(=O)C2(C)CCN(C(=O)Nc3ccc(C)c(F)c3)CC2)cc1`: 914 s; for `Cc1c(CCOC(=O)c2ccc([N+](=O)[O-])cc2)sc[n+]1Cc1ccccc1`: 909 s.

On to `Cc1ccc(C(=O)N2CCc3nc(-c4ccc(F)cc4)ncc3C2)cc1C`, for which the RP-LC retention time turned out to be 901 s. Regarding `CCC1CCCCN1CCCNC(=O)c1cn(CCOC)c(=O)c2c1c1ccccc1n2C` (stereo not given), the RP-LC retention time is 631 s. `Cn1cc(CN2CC(F)(F)C[C@H]2COc2ccncc2)c2ccccc21` had an RP-LC retention time of 634 s. On to `Cc1cccc(-c2nnc(-c3ccc(Cl)c(S(=O)(=O)N(C)C)c3)o2)c1`, for which the RP-LC retention time was determined as 1040 s. On to `CCNc1cc(N2CCCC(CCC(=O)Nc3ccc(OCC)cc3)C2)ncn1` (stereo not given), for which the RP-LC retention time came to 699 s.

`Cn1cc(C(=O)Nc2ccc(Cl)cc2)c2cccnc21` showed an RP-LC retention time of 835 s. `COc1ccc(Cl)cc1NC(=O)CSc1nnc2c3cc(-c4ccc(C)c(C)c4)nn3ccn12`: the RP-LC retention time was 1130 s.

The compound `CCOC(=O)C1CCN(c2cc3c(cc2NC(=O)NC(C)CC)n(C)c(=O)n3C)CC1` (stereo not given) came in with an RP-LC retention time of 778 s.

As for `CCOc1ccc(-c2nnc(SCC(=O)Nc3nnc(C)s3)o2)cc1`, the RP-LC retention time worked out at 776 s. On to `O=C(NCC1CCN(C(=O)Oc2ccccc2)CC1)c1cnccn1`, for which the RP-LC retention time amounted to 689 s. The same measure for `CCCN1C(=O)COc2ccc(-c3noc(-c4cccc(NC(C)=O)c4C)n3)cc21`: 872 s; for `Cc1nc(C)c(C(=O)Nc2nc(-c3ccc(Br)cc3)cs2)s1`: 1030 s; for `Cc1oc(-c2[nH]ncc2C(=O)N2CCCC2)cc1S(=O)(=O)NCCCN(C)C`: 569 s.

`C=CCNC(=O)CCc1c(-c2ccc(Br)cc2)nc2ccccn12` displayed an RP-LC retention time of 622 s. In the case of `O=C(NCC1CC1)C1CCN(C(=O)c2ncn3c2COC(c2ccc(Cl)cc2)C3)CC1` (stereo not given) it was 758 s; in that of `O=S(=O)(c1cccc(F)c1)N1CCC(n2c(-c3ccoc3)nc3cccnc32)C1` (stereo not given), 872 s; in that of `COc1ccc(CNC(=O)c2c(O)c3cccnc3[nH]c2=O)cc1OC`, 804 s. The same measure for `CCOc1ccc(NC(=O)N2CCCC2c2nc(-c3ccccc3OC)no2)cc1` (stereo not given): 859 s. For the compound `CC(C)C(=O)Nc1ccc2c(c1)Sc1ncccc1C(=O)N2C(C)C`, the RP-LC retention time came out at 764 s.

`CC(C)NC(=O)CN1CCN(c2cc(C(=O)O)c3cc(NC(=O)c4ccccc4F)ccc3n2)CC1` gave an RP-LC retention time of 594 s. Regarding `COc1ncccc1CNC(=O)Cc1ccsc1`, the RP-LC retention time was found to be 610 s. In turn, `O=C(NCCCn1nc(-c2ccco2)ccc1=O)Nc1ccc2c(c1)OCO2` gave an RP-LC retention time of 678 s. The compound `CCOC(=O)c1ccc(NC2=NS(=O)(=O)C(c3ccc(OC)cc3)=C2C)cc1` yielded an RP-LC retention time of 928 s. In the case of `CCc1ccc(C(=O)N2CCN(c3nnc4ccccn34)CC2)cc1` it was 681 s. In the case of `Cc1nc(-c2ccc3c(c2)CCN3C(=O)Cc2ccsc2)cs1`, the RP-LC retention time is 980 s.

`CCCNC(=O)C1CCN(c2ccc(SCC(=O)NCc3ccc(OC)cc3)nn2)CC1` came in with an RP-LC retention time of 621 s.

Source of the values: the METLIN SMRT retention time set (Domingo-Almenara et al. 2019).
